Holding throughout (type): cell-based, human
In one assay the test system is SQSTM1. The assay is described as follows: Western blot of SQSTM1. Particulars: A549 cells, EBSS plus BSA medium, 4 h. On the procedure:
The cells were plated in 12-well plates at 1×10^5 density and incubated for 24 h. Subsequently, the cells received indicated treatments for 4 h and the cells were washed with 1×PBS three times and harvested with RIPA buffer (supplemented with Halt protease and phosphatase inhibitor cocktail, Thermo Fischer Scientific, USA). Total protein concentration was determined by pierce BCA protein assay kit (Thermo Fischer Scientific, #23225). Equal amounts of proteins were loaded. SDS-PAGE electrophoresis was utilized to separate proteins, which were subsequently transferred to a nitrocellulose membrane through the wet transfer system. The membranes were blocked with 5% BSA in TBST at room temperature for 1 h and incubated with indicated primary antibodies overnight under 4° C. After washed with TBST, the blots were incubated with secondary antibodies for 1 h at room temperature. After washed with TBST three times, the proteins blots were visualized by Clarity Western ECL Substrate (BioRad) and captured by ChemiDoc Imaging System (BioRad). […]
(In general: A western blot detects proteins with antibodies after separation by electrophoresis.)

For assay [1], the system named is A549 cells. Kind of assay: FITC-BSA protein internalization. On the procedure: (§1) For in vitro fluorescent imaging detection, the cells were seeded on Nunc glass bottom confocal dishes (Thermo Fischer Scientific, USA) for 24 h. Unless explained, the cells were incubated with FITC-BSA (0.2 mg/mL), BSA-AF647 (0.05 mg/mL), or DQ-BSA (10 μg/mL) for 4 h for protein internalization and extracellular protein degradation analysis, respectively. TMR-Dextran (0.125 mg/mL) was applied for 1 h as a macropinocytosis marker. Subsequently, after washed with PBS three times, the cells were fixed in 3.7% paraformaldehyde solution in PBS for 10 min, followed by washing with PBS three times and staining with DAPI according to the protocol (Thermo Fischer Scientific, D1306). After washing with PBS three times, the cells were mounted with SlowFade Diamond Antifade Mountant (Thermo Fischer Scientific, S36963). The in vivo TUNEL assay was conducted using the one-step TUNEL assay kit (C1088, Beyotime, China). The Zeiss LSM 900 inverted confocal microscope equipped with 10×0.45 NA, 20×0.8 NA and 40×1.4 NA lens was employed to analyze intracellular fluorescent signals. The same exposure settings were used across all conditions in each individual experiment.
(§2) The cells were seeded in 12-well plates at 1×10^5 density. […] After washing with PBS three times, the cells were harvested and analyzed by Agilent NovoCyte Quanteon analyzer.

Assay [2] relates to A549 cells. The assay is described as follows: Cytotoxicity assay (MTT). Conditions: BTZ (20 μM), EBSS vs DMEM, 24 h. How it is done: The cells were seeded in 96-well plates and cultured for 24 h. To investigate the influence of starvation on BTZ treatment, the cells were incubated with BTZ (20 μM) or DMSO, in complete DMEM or EBSS medium for 24 h. To investigate the combination effect of EIPA and BTZ, the cells were treated with a series of concentration of EIPA and BTZ in EBSS (plus 3% BSA) medium for 24 h. 10 μL of MTT (5 mg/mL) were added into each well and incubated for 2-4 h. Then the supernatant was changed with 100 μL DMSO to dissolve the precipitate. Subsequently, the absorbance of the solution at 570 nm and 630 nm was measured by a microplate reader (SpectraMax M4, Molecular Devices LLC, San Jose, CA). The cell viability was calculated by OD570-OD630 and normalized to DMSO control group.

Assay [3] relates to K48-polyubiquitinated proteins in A549 cells. Kind of assay: Western blot of K48-polyubiquitinated proteins. Particulars: EBSS plus BTZ (10 μM), 2 h or 24 h. How it is done: The cells were plated in 12-well plates at 1×10^5 density and incubated for 24 h. […] Total protein concentration was determined by pierce BCA protein assay kit (Thermo Fischer Scientific, #23225). Equal amounts of proteins were loaded. SDS-PAGE electrophoresis was utilized to separate proteins, which were subsequently transferred to a nitrocellulose membrane through the wet transfer system. The membranes were blocked with 5% BSA in TBST at room temperature for 1 h and incubated with indicated primary antibodies overnight under 4° C. After washed with TBST, the blots were incubated with secondary antibodies for 1 h at room temperature. After washed with TBST three times, the proteins blots were visualized by Clarity Western ECL Substrate (BioRad) and captured by ChemiDoc Imaging System (BioRad). The following antibodies were used: K48-polyubiquitinated proteins (Cell signaling technology, #8081), p-S6K (Cell signaling technology, #9234), S6K (Cell signaling technology, #2708), mTOR (Cell signaling technology, #2983), β-Actin (Cell signaling technology, #4967), SQSTM1 (Abcam, ab91526), HRP-conjugated secondary antibody (Abcam, ab6789), HRP-conjugated secondary antibody (Abcam, ab6721).

Assay [4] concerns A549 cells. Kind of assay: DQ-BSA internalization and degradation analysis. How it is done: as §1, with “Unless explained, the cells were incubated with FITC-BSA (0.2 mg/mL), BSA-AF647 (0.05 mg/mL), or DQ-BSA (10 μg/mL) for 4 h for protein internalization and extracellular protein degradation analysis, respectively.” left out, “([…],” for “(C1088,”, “experiment. The cells were seeded in 12-well plates at 1×10^5 density. Unless explained, the cells were incubated with FITC-BSA (0.2 mg/mL), DQ-BSA (10 μg/mL), or Me4BodipyFL-Ahx3Leu3VS (1 μM) for 4 h for protein internalization, extracellular protein degradation, and proteasome activity analysis, respectively. […] After washing with PBS three times, the cells were harvested and analyzed by Agilent NovoCyte Quanteon analyzer.” for “experiment.”

The subject of another assay is proteasome. The assay is described as follows: Proteasome activity probe (Me4BodipyFL-Ahx3Leu3VS) flow cytometry. Conditions: A549 cells, EBSS plus BTZ (10 μM), 4 h, vs EBSS. On the procedure: The cells were seeded in 12-well plates at 1×10^5 density. Unless explained, the cells were incubated with FITC-BSA (0.2 mg/mL), DQ-BSA (10 μg/mL), or Me4BodipyFL-Ahx3Leu3VS (1 μM) for 4 h for protein internalization, extracellular protein degradation, and proteasome activity analysis, respectively. TMR-Dextran (0.125 mg/mL) was applied for 1 h as a macropinocytosis marker. After washing with PBS three times, the cells were harvested and analyzed by Agilent NovoCyte Quanteon analyzer.

For assay [5], the system named is A549 cells. The assay is described as follows: mCherry-GFP-LC3 reporter and BSA-AF647 internalization (CLSM). Particulars: EBSS plus BTZ, 4 h, vs starved cells. On the procedure:
as §1, with “experiment. […]” for “experiment.”

In assay [6] the test system is A549 cells. Kind of assay: TMR-Dextran internalization (macropinocytosis marker). Conditions: EBSS plus EIPA (50 μM, pretreated 1 h before). How it is done:
as §1, §2

`CC(C)C[C@H](NC(=O)[C@H](Cc1ccccc1)NC(=O)c1cnccn1)B(O)O` [BTZ, bortezomib]: in the assay on SQSTM1, the SQSTM1 expression level entry is reported as “exacerbated starvation-induced SQSTM1 decrease”. Also, the FITC-BSA protein internalization entry in the assay with A549 cells [1] (EBSS plus BTZ, 4 h) is recorded as “further increased protein internalization”. In addition, in the assay on A549 cells [2], the cell viability result is listed as “much more significant decrease of cell viability in starved cancer cells”. In assay [3], the “level of K48-polyubiquitinated proteins” value is “profound accumulation of polyubiquitinated proteins”. Besides, the “fluorescence intensity of DQ-BSA (internalized protein degradation)” value in the assay with A549 cells [4] (A549 cells, EBSS plus BTZ (10 μM), 4 h, vs EBSS) is on record as “substantially decreased”. Also, the “fluorescence intensity of proteasome probe (proteasome activity)” value in the assay with proteasome was “remarkably reversed”. Also, in the assay on A549 cells [5], the “LC3 puncta (autophagy flux)” value is reported as “further enhanced” and the “percentage of BSA-AF647 colocalized with LC3 puncta” value is recorded as “increased the percentage of BSA-AF647 colocalized with LC3 puncta”.

For the compound `CCN(c1nc(N)c(C(=O)N=C(N)N)nc1Cl)C(C)C` [EIPA, 5-(n-ethyl-n-isopropyl)-amiloride], the “starvation-amplified FITC-BSA uptake” value in the assay with A549 cells [1] (EBSS plus EIPA (50 μM, pretreated 1 h before), 1 h) was “notably blocked”. Besides, in the assay on A549 cells [6], the “TMR-Dextran internalization (macropinocytosis)” value was “inhibited”. Further, the “fluorescence intensity of DQ-BSA (intracellular protein degradation)” value with A549 cells [4] (A549 cells pre-incubated with DQ-BSA 1 h, then EBSS with 3% BSA plus EIPA 3 h, vs starvation group) is “further increased the fluorescence intensity of DQ-BSA”.

The values above are taken from US20250025484A1, “POLYMERSOME NANOPARTICLES EXHAUSTING INTRACELLUAR AMINO ACID FOR CANCER THERAPY AND METHODS THEREOF” (THE UNIVERSITY OF HONG KONG, priority 2023, published 2025).
